Data taken from patent US10280169B2, “Biaryl bruton's tyrosine kinase inhibitors” (BIOGEN MA INC., priority 2013, dated 2019).

target: T1, BTK (Homo sapiens, UniProt Q06187); experiment: In vitro BTK kinase assay: BTK-POLYGAT-LS assay; type: biochemical; conditions: 10 uM ATP, read-out: IC50 (10 uMATP)
T1 construct: purchased Upstate 14-552
T1 sequence (Q06187 whole entry): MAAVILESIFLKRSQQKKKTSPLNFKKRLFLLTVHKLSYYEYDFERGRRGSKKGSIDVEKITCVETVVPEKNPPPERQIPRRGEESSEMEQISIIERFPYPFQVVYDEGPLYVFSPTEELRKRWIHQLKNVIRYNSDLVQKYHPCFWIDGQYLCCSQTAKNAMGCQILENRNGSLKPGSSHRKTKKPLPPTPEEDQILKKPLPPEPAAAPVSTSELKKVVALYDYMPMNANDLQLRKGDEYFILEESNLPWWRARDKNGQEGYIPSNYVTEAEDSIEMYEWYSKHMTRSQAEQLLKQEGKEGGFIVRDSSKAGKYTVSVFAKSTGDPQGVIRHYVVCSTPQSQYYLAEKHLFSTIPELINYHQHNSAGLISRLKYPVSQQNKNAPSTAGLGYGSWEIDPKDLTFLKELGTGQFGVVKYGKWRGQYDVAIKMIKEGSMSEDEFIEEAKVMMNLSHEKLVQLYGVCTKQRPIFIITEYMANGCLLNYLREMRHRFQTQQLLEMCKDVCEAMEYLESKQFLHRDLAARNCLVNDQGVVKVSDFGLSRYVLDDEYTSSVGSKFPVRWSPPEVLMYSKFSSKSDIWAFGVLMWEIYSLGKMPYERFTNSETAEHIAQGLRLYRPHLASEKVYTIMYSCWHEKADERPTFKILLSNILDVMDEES

SMILES	IC50
Cc1cc(-c2ncnc3[nH]ncc23)cnc1CNC(=O)c1cc2c(s1)CCCC2 [Example I-125, N-((3-methyl-5-(1H-pyrazolo[3,4-d]pyrimidin-4-yl)pyridin-2-yl)methyl)-4,5,6,7-tetrahydrobenzo[b]thiophene-2-carboxamide]	0.01 to 0.099 µM
Cc1cc(-c2ccnc3[nH]ccc23)cnc1CNC(=O)c1cc2c(s1)CCCC2 [Example I-126, N-((3-methyl-5-(1H-pyrrolo[2,3-b]pyridin-4-yl)pyridin-2-yl)methyl)-4,5,6,7-tetrahydrobenzo[b]thiophene-2-carboxamide]	0.01 to 0.099 µM
Cc1cc(-c2ncnc3[nH]ncc23)ccc1C(C)NC(=O)c1nc2c(s1)CCCC2 (stereo not drawn) [Example I-127, N-(1-(2-methyl-4-(1H-pyrazolo[3,4-d]pyrimidin-4-yl)phenyl)ethyl)-4,5,6,7-tetrahydrobenzo[d]thiazole-2-carboxamide]	0.01 to 0.099 µM
Cc1cc(-c2ncnc3[nH]ncc23)ccc1C(C)NC(=O)c1cnc(C(C)(C)C)s1 (stereo not drawn) [Example I-128, 2-(tert-butyl)-N-(1-(2-methyl-4-(1H-pyrazolo[3,4-d]pyrimidin-4-yl)phenyl)ethyl)thiazole-5-carboxamide]	0.01 to 0.099 µM
CC(C)(C)c1ncc(C(=O)NC2CCCc3cc(-c4ncnc5cc[nH]c45)ccc32)s1 (stereo not drawn) [Example I-129, N-(6-(5H-pyrrolo[3,2-d]pyrimidin-4-yl)-1,2,3,4-tetrahydronaphthalen-1-yl)-2-(tert-butyl)thiazole-5-carboxamide]	0.01 to 0.099 µM
O=C(NC1CCCc2cc(-c3ncnc4[nH]ncc34)ccc21)c1nc2c(s1)CCC2 (stereo not drawn) [Example I-130, N-(6-(1H-pyrazolo[3,4-d]pyrimidin-4-yl)-1,2,3,4-tetrahydronaphthalen-1-yl)-5,6-dihydro-4H-cyclopenta[d]thiazole-2-carboxamide]	0.01 to 0.099 µM
CC(C)(C)c1ccc(C(=O)NC2CCCc3cc(-c4ncnc5[nH]ncc45)ccc32)nc1 (stereo not drawn) [Example I-131, N-(6-(1H-pyrazolo[3,4-d]pyrimidin-4-yl)-1,2,3,4-tetrahydronaphthalen-1-yl)-5-(tert-butyl)picolinamide]	0.1 to 0.999 µM
O=C(NC(CO)c1ccc(-c2ncnc3[nH]ncc23)cc1)c1cc2c(s1)CCCC2 (stereo not drawn) [Example I-132, N-(1-(4-(1H-pyrazolo[3,4-d]pyrimidin-4-yl)phenyl)-2-hydroxyethyl)-4,5,6,7-tetrahydrobenzo[b]thiophene-2-carboxamide]	0.01 to 0.099 µM
Cc1cc(-c2ncnc3nc(N4CCN(C)CC4)sc23)ccc1CNC(=O)c1cnc(C(C)(C)C)s1 [Example I-133, 2-(tert-butyl)-N-(2-methyl-4-(2-(4-methylpiperazin-1-yl)thiazolo[4,5-d]pyrimidin-7-yl)benzyl)thiazole-5-carboxamide]	0.01 to 0.099 µM
Cc1cc(-c2ncnc3cc[nH]c23)ccc1C(C)NC(=O)c1cnc(C(C)(C)C)s1 (stereo not drawn) [Example I-134, 2-(tert-butyl)-N-(1-(2-methyl-4-(5H-pyrrolo[3,2-d]pyrimidin-4-yl)phenyl)ethyl)thiazole-5-carboxamide]	0.01 to 0.099 µM
CC(NC(=O)c1cc2c(s1)CCCC2)c1ccc(-c2ncnc3[nH]ncc23)cc1C(F)(F)F (stereo not drawn) [Example I-135, N-(1-(4-(1H-pyrazolo[3,4-d]pyrimidin-4-yl)-2-(trifluoromethyl)phenyl)ethyl)-4,5,6,7-tetrahydrobenzo[b]thiophene-2-carboxamide]	0.01 to 0.099 µM
CC1(C)CCc2nc(C(=O)NC3CCCc4cc(-c5ncnc6[nH]ncc56)ccc43)sc2C1 (stereo not drawn) [Example I-136, N-(6-(1H-pyrazolo[3,4-d]pyrimidin-4-yl)-1,2,3,4-tetrahydronaphthalen-1-yl)-6,6-dimethyl-4,5,6,7-tetrahydrobenzo[d]thiazole-2-carboxamide]	0.01 to 0.099 µM
O=C(NC1CCCc2cc(-c3ncnc4[nH]ncc34)ccc21)c1nc2c(s1)CCCC2 (stereo not drawn) [Example I-137, N-(6-(1H-pyrazolo[3,4-d]pyrimidin-4-yl)-1,2,3,4-tetrahydronaphthalen-1-yl)-4,5,6,7-tetrahydrobenzo[d]thiazole-2-carboxamide]	0.01 to 0.099 µM
O=c1c2c(F)cc(C3CC3)cc2ccn1C1CCCc2cc(-c3ncnc4[nH]ncc34)ccc21 (stereo not drawn) [Example I-138, 2-(6-(1H-pyrazolo[3,4-d]pyrimidin-4-yl)-1,2,3,4-tetrahydronaphthalen-1-yl)-6-cyclopropyl-8-fluoroisoquinolin-1(2H)-one]	0.01 to 0.099 µM
Cc1cc(-c2ccnc3[nH]ncc23)cnc1CNC(=O)c1cc2c(s1)CCCC2 [Example I-139, N-((3-methyl-5-(1H-pyrazolo[3,4-b]pyridin-4-yl)pyridin-2-yl)methyl)-4,5,6,7-tetrahydrobenzo[b]thiophene-2-carboxamide]	0.01 to 0.099 µM
Cc1cc(-c2ncnc3cc[nH]c23)cnc1CNC(=O)c1cc2c(s1)CCCC2 [Example I-140, N-((3-methyl-5-(5H-pyrrolo[3,2-d]pyrimidin-4-yl)pyridin-2-yl)methyl)-4,5,6,7-tetrahydrobenzo[b]thiophene-2-carboxamide]	0.1 to 0.999 µM
Cn1cc(-c2cc3c(-c4ccc5c(c4)CCCC5NC(=O)N4CC(OC(C)(C)C)C4)ncnc3[nH]2)cn1 (stereo not drawn) [Example I-159, 3-(tert-butoxy)-N-(6-(6-(1-methyl-1H-pyrazol-4-yl)-7H-pyrrolo[2,3-d]pyrimidin-4-yl)-1,2,3,4-tetrahydronaphthalen-1-yl)azetidine-1-carboxamide]	< 0.01 µM

More lines, now with the values ahead:

IC50	SMILES
0.1 to 0.999 µM	Cc1cc(-c2ncnc3sc4c(c23)CCC4)ccc1CNC(=O)c1cnc(C(C)(C)C)s1 [Example I-141]
0.1 to 0.999 µM	CC(C)(C)c1ccc(C(=O)NC2CCCc3cc(-c4ncnc5[nH]ncc45)ccc32)cn1 (stereo not drawn) [Example I-142, N-(6-(1H-pyrazolo[3,4-d]pyrimidin-4-yl)-1,2,3,4-tetrahydronaphthalen-1-yl)-6-(tert-butyl)nicotinamide]
0.1 to 0.999 µM	CCC(NC(=O)c1cc2c(s1)CCCC2)c1ccc(-c2ncnc3[nH]ncc23)cc1 (stereo not drawn) [Example I-143, N-(1-(4-(1H-pyrazolo[3,4-d]pyrimidin-4-yl)phenyl)propyl)-4,5,6,7-tetrahydrobenzo[b]thiophene-2-carboxamide]
0.1 to 0.999 µM	CC(C)(C)c1ncc(C(=O)N[C@@H]2CCCc3cc(-c4ccnc5[nH]ncc45)cnc32)s1 [Example I-144, (R)—N-(3-(1H-pyrazolo[3,4-b]pyridin-4-yl)-5,6,7,8-tetrahydroquinolin-8-yl)-2-(tert-butyl)thiazole-5-carboxamide]
0.1 to 0.999 µM	CC(NC(=O)c1nc2c(s1)CCCC2)c1ccc(-c2ncnc3[nH]ncc23)cc1C(F)(F)F (stereo not drawn) [Example I-145, N-(1-(4-(1H-pyrazolo[3,4-d]pyrimidin-4-yl)-2-(trifluoromethyl)phenyl)ethyl)-4,5,6,7-tetrahydrobenzo[d]thiazole-2-carboxamide]
1 to 10 µM	O=C(NC1CCCc2cc(-c3ncnc4[nH]ncc34)ccc21)c1ccc(C(F)(F)F)cn1 (stereo not drawn) [Example I-147, N-(6-(1H-pyrazolo[3,4-d]pyrimidin-4-yl)-1,2,3,4-tetrahydronaphthalen-1-yl)-5-(trifluoromethyl)picolinamide]
1 to 10 µM	CC(C)C(NC(=O)c1cc2c(s1)CCCC2)c1ccc(-c2ncnc3[nH]ncc23)cc1 (stereo not drawn) [Example I-149, N-(1-(4-(1H-pyrazolo[3,4-d]pyrimidin-4-yl)phenyl)-2-methylpropyl)-4,5,6,7-tetrahydrobenzo[b]thiophene-2-carboxamide]
1 to 10 µM	CC(C)(C)c1ccnc(C(=O)NC2CCCc3cc(-c4ncnc5[nH]ncc45)ccc32)c1 (stereo not drawn) [Example I-150, N-(6-(1H-pyrazolo[3,4-d]pyrimidin-4-yl)-1,2,3,4-tetrahydronaphthalen-1-yl)-4-(tert-butyl)picolinamide]
1 to 10 µM	NC(=O)C(NC(=O)c1cc2c(s1)CCCC2)c1ccc(-c2ncnc3[nH]ncc23)cc1 (stereo not drawn) [Example I-151, N-(1-(4-(1H-pyrazolo[3,4-d]pyrimidin-4-yl)phenyl)-2-amino-2-oxoethyl)-4,5,6,7-tetrahydrobenzo[b]thiophene-2-carboxamide]
1 to 10 µM	CC(C)(C)c1ncc(C(=O)N[C@H]2CCCc3cc(-c4ccnc5[nH]ncc45)cnc32)s1 [Example I-152, (S)—N-(3-(1H-pyrazolo[3,4-b]pyridin-4-yl)-5,6,7,8-tetrahydroquinolin-8-yl)-2-(tert-butyl)thiazole-5-carboxamide]
0.01 to 0.099 µM	Cc1cc(-c2ncnc3[nH]ccc23)cnc1CNC(=O)c1cc2c(s1)CCCC2 [Example I-153, N-((3-methyl-5-(7H-pyrrolo[2,3-d]pyrimidin-4-yl)pyridin-2-yl)methyl)-4,5,6,7-tetrahydrobenzo[b]thiophene-2-carboxamide]
> 10 µM	CC(C)(C)c1ccc(C(=O)NC2CCc3cc(-c4ncnc5[nH]ccc45)ccc32)cc1 (stereo not drawn) [Example I-154, N-(5-(7H-pyrrolo[2,3-d]pyrimidin-4-yl)-2,3-dihydro-1H-inden-1-yl)-4-(tert-butyl)benzamide]
< 0.01 µM	Cn1cc(-c2cc3c(-c4ccc5c(c4)CCCC5NC(=O)c4cnn(C(C)(C)C)c4)ncnc3[nH]2)cn1 (stereo not drawn) [Example I-156, 1-(tert-butyl)-N-(6-(6-(1-methyl-1H-pyrazol-4-yl)-7H-pyrrolo[2,3-d]pyrimidin-4-yl)-1,2,3,4-tetrahydronaphthalen-1-yl)-1H-pyrazole-4-carboxamide]
< 0.01 µM	Cn1cc(-c2cc3c(-c4ccc5c(c4)CCCC5NC(=O)N4CCC(C(C)(C)C)C4)ncnc3[nH]2)cn1 (stereo not drawn) [Example I-157, 3-(tert-butyl)-N-(6-(6-(1-methyl-1H-pyrazol-4-yl)-7H-pyrrolo[2,3-d]pyrimidin-4-yl)-1,2,3,4-tetrahydronaphthalen-1-yl)pyrrolidine-1-carboxamide]
< 0.01 µM	CC(C)OC1CN(C(=O)NC2CCCc3cc(-c4ncnc5[nH]c(-c6cnn(C)c6)cc45)ccc32)C1 (stereo not drawn) [Example I-158, 3-isopropoxy-N-(6-(6-(1-methyl-1H-pyrazol-4-yl)-7H-pyrrolo[2,3-d]pyrimidin-4-yl)-1,2,3,4-tetrahydronaphthalen-1-yl)azetidine-1-carboxamide]
< 0.01 µM	Cn1cc(-c2cc3c(-c4ccc5c(c4)CCCCC5NC(=O)c4cnn(C(C)(C)C)c4)ncnc3[nH]2)cn1 (stereo not drawn) [Example I-160, 1-(tert-butyl)-N-(2-(6-(1-methyl-1H-pyrazol-4-yl)-7H-pyrrolo[2,3-d]pyrimidin-4-yl)-6,7,8,9-tetrahydro-5H-benzo[7]annulen-5-yl)-1H-pyrazole-4-carboxamide]
